Assay results as given in patent publication US20220386606A1, “SPECIFICALLY SUBSTITUTED 3-PHENYL-5-SPIROCYCLOPENTYL-3-PYRROLIN-2-ONES AND THEIR USE AS HERBICIDES” (Bayer Aktiengesellschaft, priority 2019, published 2022).

Experiments:
ALOMY [1] = assay: Pre-emergence herbicidal action against ALOMY; assay type: in vivo, Alopecurus myosuroides; settings: 320 g/ha, scored visually after 3 weeks vs untreated controls
Procedure, shortened: (§1)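 Visual scoring after 3 weeks in the greenhouse gives percent activity (100% = dead, 0% = like untreated). Compounds, formulated as WP or EC, were applied to the soil surface over freshly sown seeds in sandy loam, water rate 600 to 800 L/ha plus 0.2% wetting agent.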

AVEFA [2] = assay: Pre-emergence herbicidal action against AVEFA; assay type: in vivo, Avena fatua; settings: 320 g/ha, scored visually after 3 weeks vs untreated controls
Procedure, shortened: as §1

DIGSA [3] = assay: Pre-emergence herbicidal action against DIGSA; assay type: in vivo, Digitaria sanguinalis; settings: 320 g/ha, scored visually after 3 weeks vs untreated controls
Procedure, shortened: as §1

ECHCG [4] = assay: Pre-emergence herbicidal action against ECHCG; assay type: in vivo, Echinochloa crus-galli; settings: 320 g/ha, scored visually after 3 weeks vs untreated controls
Procedure, shortened: as §1

LOLRI [5] = assay: Pre-emergence herbicidal action against LOLRI (Table 8, titled post-emergence at 320 g/ha); assay type: in vivo, Lolium rigidum; settings: table stands in the pre-emergence section
Procedure, shortened: as §1

SETVI [6] = assay: Pre-emergence herbicidal action against SETVI; assay type: in vivo, Setaria viridis; settings: 320 g/ha, scored visually after 3 weeks vs untreated controls
Procedure, shortened: as §1

ABUTH [7] = assay: Pre-emergence herbicidal action against ABUTH; assay type: in vivo, Abutylon threophrasti; settings: 320 g/ha
Procedure, shortened: as §1

AMARE [8] = assay: Pre-emergence herbicidal action against AMARE; assay type: in vivo, Amaranthus retroflexus; settings: 320 g/ha
Procedure, shortened: as §1

MATIN = assay: Pre-emergence herbicidal action against MATIN; assay type: in vivo; settings: 320 g/ha
Procedure, shortened: as §1

POLCO [9] = assay: Pre-emergence herbicidal action against POLCO; assay type: in vivo, Polygonum convolvulus; settings: 320 g/ha
Procedure, shortened: as §1

VIOTR [10] = assay: Pre-emergence herbicidal action against VIOTR; assay type: in vivo, Viola tricolor; settings: 320 g/ha
Procedure, shortened: as §1

VERPE [11] = assay: Pre-emergence herbicidal action against VERPE; assay type: in vivo, Veronica persica; settings: 320 g/ha
Procedure, shortened: as §1

ALOMY [12] = assay: Post-emergence herbicidal action against ALOMY; assay type: in vivo, Alopecurus myosuroides; settings: 80 g/ha, visual assessment after about 3 weeks
Procedure, shortened: (§2)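 Sow in sandy loam and grow in the greenhouse for 2 to 3 weeks to the one-leaf stage. Spray the compound as an aqueous suspension or emulsion with 0.2% wetting agent, 600 to 800 l/ha water rate. Hold about 3 weeks, then score damage visually versus controls.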

AVEFA [13] = assay: Post-emergence herbicidal action against AVEFA; assay type: in vivo, Avena fatua; settings: 80 g/ha, visual assessment after about 3 weeks
Procedure, shortened: as §2

DIGSA [14] = assay: Post-emergence herbicidal action against DIGSA; assay type: in vivo, Digitaria sanguinalis; settings: 80 g/ha, visual assessment about 3 weeks after treatment vs untreated controls
Procedure, shortened: as §2

ECHCG [15] = assay: Post-emergence herbicidal action against ECHCG; assay type: in vivo, Echinochloa crus-galli; settings: 80 g/ha, visual assessment about 3 weeks after treatment vs untreated controls
Procedure, shortened: as §2

LOLRI [16] = assay: Post-emergence herbicidal action against LOLRI; assay type: in vivo, Lolium rigidum; settings: 80 g/ha, visual assessment about 3 weeks after treatment vs untreated controls
Procedure, shortened: as §2

SETVI [17] = assay: Post-emergence herbicidal action against SETVI; assay type: in vivo, Setaria viridis; settings: 80 g/ha, visual assessment about 3 weeks after treatment vs untreated controls
Procedure, shortened: as §2

ABUTH [18] = assay: Post-emergence herbicidal action against ABUTH; assay type: in vivo, Abutylon threophrasti; settings: 80 g/ha, visual assessment about 3 weeks after treatment vs untreated controls
Procedure, shortened: as §2

AMARE [19] = assay: Post-emergence herbicidal action against AMARE; assay type: in vivo, Amaranthus retroflexus; settings: 80 g/ha, visual assessment about 3 weeks after treatment vs untreated controls
Description: (§3) Seeds of monocotyledonous and dicotyledonous weed and crop plants are laid out in sandy loam soil in wood-fiber pots, covered with soil and cultivated in a greenhouse under good growth conditions. 2 to 3 weeks after sowing, the test plants are treated at the one-leaf stage. The compounds of the invention, formulated in the form of wettable powders (WP) or as emulsion concentrates (EC), are then sprayed onto the green parts of the plants as aqueous suspension or emulsion at a water application rate equating to 600 to 800 l/ha with addition of 0.2% wetting agent. After the test plants have been left to stand in the greenhouse under optimal growth conditions for about 3 weeks, the action of the preparations is assessed visually in comparison to untreated controls (herbicidal action in percent (%): 100% activity=the plants have died, 0% activity=like control plants).

VERPE [20] = assay: Post-emergence herbicidal action against VERPE; assay type: in vivo, Veronica persica; settings: 80 g/ha, visual assessment about 3 weeks after treatment vs untreated controls
Description: as §3

POLCO [21] = assay: Post-emergence herbicidal action against POLCO; assay type: in vivo, Polygonum convolvulus; settings: 80 g/ha, visual assessment about 3 weeks after treatment vs untreated controls
Description: as §3

VIOTR [22] = assay: Post-emergence herbicidal action against VIOTR; assay type: in vivo, Viola tricolor; settings: 80 g/ha, visual assessment about 3 weeks after treatment vs untreated controls
Description: as §3

PHBPU = assay: Post-emergence herbicidal action against PHBPU; assay type: in vivo; settings: assessed visually after about 3 weeks, 100% = plants have died, 0% = like control plants
Description: as §3

SMILES | Pre-emergence action against ALOMY in % (ALOMY [1]) [%] | Pre-emergence action against AVEFA in % (AVEFA [2]) [%] | Pre-emergence action against DIGSA in % (DIGSA [3]) [%] | Pre-emergence action against ECHCG in % (ECHCG [4]) [%] | Pre-emergence herbicidal action against LOLRI in % (LOLRI [5]) [%] | Pre-emergence action against SETVI in % (SETVI [6]) [%] | Pre-emergence action against AMARE in % (AMARE [8]) [%] | Pre-emergence action against MATIN in % (MATIN) [%] | Pre-emergence action against POLCO in % (POLCO [9]) [%] | Pre-emergence action against VIOTR in % (VIOTR [10]) [%] | Pre-emergence action against VERPE in % (VERPE [11]) [%] | Post-emergence action against ALOMY in % (ALOMY [12]) [%] | Post-emergence action against AVEFA in % (AVEFA [13]) [%] | Post-emergence action against DIGSA in % (DIGSA [14]) [%] | Post-emergence action against ECHCG in % (ECHCG [15]) [%] | Post-emergence action against LOLRI in % (LOLRI [16]) [%] | Post-emergence action against SETVI in % (SETVI [17]) [%] | Post-emergence action against ABUTH in % (ABUTH [18]) [%] | Post-emergence action against VERPE in % (VERPE [20]) [%] | Post-emergence action at 80 g/ha against PHBPU in % (PHBPU) [%] | other results
CC#Cc1cc(C)c(C2=C(O)C3(CCC(COCC)C3)NC2=O)c(Cl)c1 (centres unmarked) [Example I-02] | 100 | 100 | 100 | 100 | 100 | 100 | 100 | 90 | 100 | 100 | 90 | 100 | 90 | 90 | 100 | 100 | 100 | 80 | 90 |  | Pre-emergence action against ABUTH in % (ABUTH [7]): 100%; Post-emergence action against AMARE in % (AMARE [19]): 80%
CC#Cc1cc(Br)c(C2=C(O)C3(CCC(COC)C3)NC2=O)c(OC)c1 (centres unmarked) [Example I-10] | 100 | 100 | 100 | 100 | 100 | 100 |  |  | 80 | 100 | 100 | 100 |  | 100 | 100 | 100 | 100 |  |  |  | Post-emergence action against POLCO in % (POLCO [21]): 80%
CC#Cc1cc(C)c(C2=C(O)C3(CCC(COCC)C3)NC2=O)c(OC)c1 (centres unmarked) [Example I-32] | 100 | 90 | 100 | 100 | 100 | 100 |  |  |  | 100 |  | 100 | 100 | 100 | 100 | 100 |  | 80 | 80 |  | Post-emergence action against VIOTR in % (VIOTR [22]): 80%
CC#Cc1cc(F)c(C2=C(O)C3(CCC(COC)C3)NC2=O)c(OC)c1 (centres unmarked) [Example I-41] |  | 80 | 100 |  | 100 | 100 |  |  |  |  |  | 100 | 90 | 100 | 100 | 90 | 100 |  |  | 80 | 
CC#Cc1cc(C)c(C2=C(O)C3(CCC(COCCC)C3)NC2=O)c(OC)c1 (centres unmarked) [Example I-58] | 100 | 80 | 100 | 100 | 100 | 100 | 100 | 100 |  | 90 |  | 100 |  | 90 | 100 | 100 | 100 |  |  | 80 | Post-emergence action against VIOTR in % (VIOTR [22]): 80%
CC#Cc1cc(C)c(C2=C(O)C3(CCC(COCCC)C3)NC2=O)c(Cl)c1 (centres unmarked) [Example I-68] | 100 | 100 | 100 | 100 | 100 | 100 | 100 | 100 |  | 100 |  | 100 |  | 100 | 100 | 100 | 100 |  |  | 80 | Pre-emergence action against ABUTH in % (ABUTH [7]): 90%; Post-emergence action against VIOTR in % (VIOTR [22]): 80%
CC#Cc1cc(C)c(C2=C(OC(=O)OCC)C3(CCC(COC)C3)NC2=O)c(Br)c1 (centres unmarked) [Example P-30] | 100 | 100 | 100 | 100 | 100 | 100 | 100 |  | 80 | 100 | 80 | 100 | 90 | 100 | 100 | 100 | 100 | 80 | 80 |  | Pre-emergence action against ABUTH in % (ABUTH [7]): 80%
CC#Cc1cc(C)c(C2=C(OC(=O)OCC)C3(CCC(COC)C3)NC2=O)c(F)c1 (centres unmarked) [Example P-52] | 100 | 90 | 100 | 100 | 100 | 100 | 80 |  | 80 | 90 |  | 100 | 90 | 100 | 100 | 100 |  | 80 | 80 |  | Post-emergence action against AMARE in % (AMARE [19]): 80%
CC#Cc1cc(C)c(C2=C(OC(=O)OCC)C3(CCC(COCCC)C3)NC2=O)c(OC)c1 (centres unmarked) [Example P-81] | 100 | 100 | 100 | 100 | 100 | 100 | 100 | 80 | 100 | 100 | 90 | 100 | 80 | 90 | 100 | 100 | 100 |  |  | 80 | 
